Test results reported in ChEMBL document CHEMBL1201862, “PubChem BioAssay data set” (2004).
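Values below derive from 48-hour exposures of cells grown in 96-well plates, with endpoints linearly interpolated between the two concentrations bracketing the appropriate inhibition level. GI50: concentration for 50% inhibition of growth.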 The source made the active and inactive calls. No stated cut-off is given here; in the data, active = GI50 up to about 1.1 µM and inactive = higher.

Tests used:
Assay in all cases: NCI anticancer screen, dose series, 48 h
PC-3 = system: PC-3
LOX IMVI = system: LOX IMVI
BT-549 = system: BT-549
NCI-H522 = system: NCI-H522
Malme-3M = system: Malme-3M
DLD-1 = system: DLD-1
COLO 205 = system: COLO 205
A498 = system: A498
MDA-MB-435 = system: MDA-MB-435
T47D = system: T47D
UACC-62 = system: UACC-62
SK-MEL-5 = system: SK-MEL-5
CAKI-1 = system: CAKI-1
OVCAR-3 = system: OVCAR-3
HL-60 = system: HL-60
SNB-19 = system: SNB-19
SNB-75 = system: SNB-75
NCI-H226 = system: NCI-H226
NCI/ADR-RES = system: NCI/ADR-RES
A549 = system: A549

Row | SMILES | GI50 (PC-3) | GI50 (LOX IMVI) | GI50 (BT-549) | GI50 (NCI-H522) | GI50 (Malme-3M) | GI50 (DLD-1) | GI50 (COLO 205) | GI50 (A498) | GI50 (MDA-MB-435) | GI50 (T47D) | GI50 (UACC-62) | GI50 (SK-MEL-5) | GI50 (CAKI-1) | GI50 (OVCAR-3) | GI50 (HL-60) | GI50 (SNB-19) | GI50 (SNB-75) | GI50 (NCI-H226) | GI50 (NCI/ADR-RES) | GI50 (A549)
1 | CS(=O)(=O)Nc1ccc(Nc2c3ccccc3nc3ccccc23)cc1 | 2.62 µM (inactive) | 1.26 µM (inactive) | 11 µM (inactive) | 2.06 µM (inactive) | 2.15 µM (inactive) | 4.15 µM (inactive) | 1.69 µM (inactive) | 3.21 µM (inactive) | 7.87 µM (inactive) | 2.41 µM (inactive) | 1.34 µM (inactive) | 1.71 µM (inactive) | 0.491 µM (active) | 4.93 µM (inactive) | 0.389 µM (active) | 2.03 µM (inactive) | 3.46 µM (inactive) | 1.04 µM (active) | 7.28 µM (inactive) | 0.325 µM (active)
2 | C=C1CC2(OC1=O)c1ccccc1CCc1ccccc12 | 14.3 µM (inactive) | 1.46 µM (inactive) | 1.58 µM (inactive) | 1.71 µM (inactive) | 1.94 µM (inactive) | 1.83 µM (inactive) | 1.91 µM (inactive) | 25.8 µM (inactive) | 2.48 µM (inactive) | 2.07 µM (inactive) | 6.4 µM (inactive) | 13.1 µM (inactive) | 1.75 µM (inactive) | 1.89 µM (inactive) | 0.729 µM (active) | 7.62 µM (inactive) | 5.69 µM (inactive) | 13.2 µM (inactive) | 1.63 µM (inactive) | 8.26 µM (inactive)
3 | N#C/C(c1nc2ccccc2[nH]1)=c1\s/c(=C/c2ccccc2)c(=O)n1-c1ccccc1 | – | > 100 µM (inactive) | – | > 100 µM (inactive) | > 100 µM (inactive) | > 100 µM (inactive) | > 100 µM (inactive) | 65.5 µM (inactive) | – | – | > 100 µM (inactive) | 81.8 µM (inactive) | > 100 µM (inactive) | > 100 µM (inactive) | > 100 µM (inactive) | > 100 µM (inactive) | > 100 µM (inactive) | > 100 µM (inactive) | – | > 100 µM (inactive)
4 | Clc1cc(Cc2cc(Cl)c(Cl)c3c2OCOC3)c2c(c1Cl)COCO2 | – | 53.1 µM (inactive) | – | 41.9 µM (inactive) | 40.6 µM (inactive) | > 100 µM (inactive) | 70 µM (inactive) | 28.4 µM (inactive) | – | – | 49.1 µM (inactive) | 43.2 µM (inactive) | 22.3 µM (inactive) | 25.3 µM (inactive) | 93.1 µM (inactive) | 38 µM (inactive) | 27.5 µM (inactive) | 28.1 µM (inactive) | – | 40.9 µM (inactive)
5 | NC(=S)NNC(=O)/C(=C/c1ccc(/C=C(\NC(=O)c2ccccc2)C(=O)NNC(N)=S)cc1)NC(=O)c1ccccc1 | – | 34.1 µM (inactive) | – | 25.4 µM (inactive) | > 100 µM (inactive) | > 63.7 µM (inactive) | > 100 µM (inactive) | > 100 µM (inactive) | – | – | > 100 µM (inactive) | 66.2 µM (inactive) | > 100 µM (inactive) | > 100 µM (inactive) | 15.6 µM (inactive) | > 100 µM (inactive) | 30.4 µM (inactive) | > 100 µM (inactive) | – | > 100 µM (inactive)
6 | CC1=Nc2c(ccc3c2C(=O)c2ccccc2C3=O)NC(c2cccc3c2CCC3)C1 (configuration not stated) | – | 24.2 µM (inactive) | – | > 23.1 µM (inactive) | > 100 µM (inactive) | 46.1 µM (inactive) | > 100 µM (inactive) | > 67.3 µM (inactive) | – | – | > 100 µM (inactive) | > 100 µM (inactive) | 6.27 µM (inactive) | > 90.4 µM (inactive) | 1.58 µM (inactive) | > 100 µM (inactive) | > 100 µM (inactive) | > 66.2 µM (inactive) | – | > 100 µM (inactive)
7 | C=CCOc1cc2c(cc1C(C)c1ccc(OC)cc1)OCO2 (configuration not stated) | 0.352 µM (active) | 0.598 µM (active) | – | 0.205 µM (active) | 0.647 µM (active) | 0.533 µM (active) | 0.471 µM (active) | 2.08 µM (inactive) | 0.251 µM (active) | – | 0.416 µM (active) | 0.601 µM (active) | 0.628 µM (active) | 0.429 µM (active) | 0.196 µM (active) | 0.564 µM (active) | 0.176 µM (active) | 0.813 µM (active) | – | 0.869 µM (active)
8 | C[C@]12C=CC(=O)C=C1CC[C@H]1[C@@H]3C[C@@H](O)[C@](O)(C(=O)CO)[C@@]3(C)C[C@H](O)[C@@]12F [TRIAMCINOLONE] | – | > 100 µM (inactive) | – | > 100 µM (inactive) | > 100 µM (inactive) | > 100 µM (inactive) | > 100 µM (inactive) | > 100 µM (inactive) | – | – | > 100 µM (inactive) | > 100 µM (inactive) | > 100 µM (inactive) | > 100 µM (inactive) | > 100 µM (inactive) | > 100 µM (inactive) | > 100 µM (inactive) | > 100 µM (inactive) | – | > 100 µM (inactive)
